# From ChEMBL document CHEMBL5257097, “An Isomer of Galidesivir That Potently Inhibits Influenza Viruses and Members of the Bunyavirales Order” (ACS Med Chem Lett, 2023)
# Legend:
# [1] = Cytotoxicity against African green monkey Vero E6 cells infected with Oropouche virus assessed as reduction in cell viability by visual analysis; format: toxicity, cell-based, Vero C1008; conditions: chlorocebus sabaeus
# [2] = Cytotoxicity against dog MDCK cells infected with Influenza A virus H7N9 assessed as reduction in cell viability by visual analysis; format: toxicity, cell-based, Canis lupus familiaris
# [3] = Selectivity index, ratio of CC50 for cytotoxicity against dog MDCK cells infected with Influenza A virus H3N2 assessed as reduction in cell viability by neutral red dye based analysis to EC50 for antiviral activity against Influenza A virus H3N2 infected in dog MDCK cells assessed as inhibition of viral replication by neutral red dye based analysis; format: toxicity; conditions: read-out: Ratio CC50/EC50
# [4] = Cytotoxicity against African green monkey Vero 76 cells infected with La Crosse virus assessed as reduction in cell viability by visual analysis; format: toxicity, cell-based; conditions: chlorocebus sabaeus
# [5] = Cytotoxicity against dog MDCK cells infected with Influenza A virus H7N9 assessed as reduction in cell viability by neutral red dye based analysis; format: toxicity, Canis lupus familiaris
# Punta Toro virus [6] = assay: Antiviral activity against Punta Toro virus infected in African green monkey Vero 76 cells assessed as inhibition of viral replication by neutral red dye based analysis; format: functional, organism-based
# [7] = Cytotoxicity against dog MDCK cells infected with Influenza B virus assessed as reduction in cell viability by visual analysis; format: toxicity, cell-based, Canis lupus familiaris
# [8] = tested on: Mammarenavirus choriomeningitidis; assay: Antiviral activity against Lymphocytic choriomeningitis virus infected in African green monkey Vero E6 cells assessed as reduction in viral yield measured for 3 days; format: functional; conditions: Vero C1008, 72 h, time 3 day
# Punta Toro virus [9] = assay: Antiviral activity against Punta Toro virus infected in African green monkey Vero 76 cells assessed as inhibition of viral replication by visual analysis; format: functional, organism-based
# Influenza A virus [10] = assay: Antiviral activity against Influenza A virus H3N2 infected in dog MDCK cells assessed as reduction in virus yield measured after 3 days by visual analysis; format: functional; conditions: 72 h, time 3 day
# [11] = Cytotoxicity against African green monkey Vero E6 cells infected with Severe fever with thrombocytopenia syndrome virus assessed as reduction in cell viability; format: toxicity, cell-based, Vero C1008; conditions: chlorocebus sabaeus
# [12] = Cytotoxicity against dog MDCK cells infected with Influenza A virus H3N2 assessed as reduction in cell viability by neutral red dye based analysis; format: toxicity, Canis lupus familiaris
# [13] = Toxicity in BALB/c mouse infected with A/Ca/04/09 (H1N1) assessed as animal survival at 10 to 300 mg/kg, ip administered twice a day for 5 days; format: organism-based; conditions: in vivo, 120 h, dose 10-300 mg/kg, time 5 day
# [14] = Cytotoxicity against African green monkey Vero E6 cells infected with JUNV assessed as reduction in cell viability by neutral red dye based analysis; format: toxicity, Vero C1008; conditions: chlorocebus sabaeus
# [15] = Cytotoxicity against African green monkey Vero cells infected with Pichinde virus assessed as reduction in cell viability by visual analysis; format: toxicity, cell-based; conditions: chlorocebus sabaeus
# [16] = (§1) Selectivity index, ratio of CC50 for cytotoxicity against dog MDCK cells infected with Influenza B virus assessed as reduction in cell viability by neutral dye based analysis to EC50 for antiviral activity against Influenza B virus infected in dog MDCK cells assessed as inhibition of viral replication by neutral red dye based analysis; format: toxicity; conditions: read-out: Ratio CC50/EC50
# Tacaribe virus = assay: Antiviral activity against Tacaribe virus infected in African green monkey Vero cells assessed as inhibition of viral replication by neutral red dye based analysis; format: functional, organism-based; conditions: Mammarenavirus tacaribeense
# Oropouche virus [17] = assay: Antiviral activity against Oro-pouche virus infected in African green monkey Vero E6 cells assessed as inhibition of viral replication by neutral red dye based analysis; format: functional, organism-based; conditions: Vero C1008
# [18] = Cytotoxicity against African green monkey Vero E6 cells infected with Oropouche virus assessed as reduction in cell viability by neutral red dye based analysis; format: toxicity, Vero C1008; conditions: chlorocebus sabaeus
# [19] = Toxicity in BALB/c mouse infected with influenza A/Ca/04/09 (H1N1) assessed as mortality at 100 mg/kg, ip measured every day for 6 days; format: organism-based; conditions: in vivo, time 6 day, read-out: Activity
# La Crosse virus = assay: Antiviral activity against La Crosse virus infected in African green monkey Vero E6 cells assessed as inhibition of viral replication by visual analysis; format: functional, organism-based; conditions: Vero C1008
# [20] = as §1, with “African green monkey Vero” for “dog MDCK”, “Tacaribe” for “Influenza B”, “visual” for “neutral dye based”, “reduction in” for “inhibition of”, “visual” for “neutral red dye based”; format: toxicity, cell-based; conditions: read-out: Ratio CC50/EC50
# [21] = (§2) Selectivity index, ratio of CC50 for cytotoxicity against African green monkey Vero E6 cells infected with Heartland virus assessed as reduction in cell viability to EC90 for antiviral activity against Heartland virus infected in African green monkey Vero E6 cells assessed as reduction in viral yield; format: toxicity, cell-based, Vero C1008
# [22] = Cytotoxicity against dog MDCK cells infected with Influenza A virus H1N1 assessed as reduction in cell viability by neutral red dye based analysis; format: toxicity, Canis lupus familiaris
# [23] = Cytotoxicity against African green monkey Vero cells infected with Tacaribe virus assessed as reduction in cell viability by visual analysis; format: toxicity, cell-based; conditions: chlorocebus sabaeus
# [24] = as §2, with “Vero” for “Vero E6”, “Pichinde” for “Heartland”, “viability by visual analysis” for “viability”, “EC50” for “EC90”, “replication by visual analysis” for “yield”; format: toxicity, cell-based; conditions: read-out: Ratio CC50/EC50
# Heartland virus = assay: Antiviral activity against Heartland virus infected in African green monkey Vero E6 cells assessed as reduction in viral yield measured for 3 days; format: functional; conditions: Vero C1008, 72 h, time 3 day
# [25] = as §2, with “76” for “E6”, “La Crosse” for “Heartland”, “viability by visual analysis” for “viability”, “EC50” for “EC90”, “replication by visual analysis” for “yield”; format: toxicity, cell-based; conditions: read-out: Ratio CC50/EC50
# [26] = Cytotoxicity against African green monkey Vero E6 cells infected with Heartland virus assessed as reduction in cell viability; format: toxicity, cell-based, Vero C1008; conditions: chlorocebus sabaeus
# Oropouche virus [27] = assay: Antiviral activity against Oropouche virus infected in African green monkey Vero E6 cells assessed as inhibition of viral replication by visual analysis; format: functional, organism-based; conditions: Vero C1008
# [28] = Cytotoxicity against African green monkey Vero 76 cells infected with La Crosse virus assessed as reduction in cell viability by neutral red dye based analysis; format: toxicity; conditions: chlorocebus sabaeus
# [29] = Selectivity index, ratio of CC50 for cytotoxicity against African green monkey Vero 76 cells infected with La Crosse virus assessed as reduction in cell viability by neutral red dye analysis to EC50 for antiviral activity against La Crosse virus infected in African green monkey Vero 76 cells assessed as reduction in viral replication by neutral red dye analysis; format: toxicity, cell-based; conditions: read-out: Ratio CC50/EC50
# Measles morbillivirus = assay: Antiviral activity against Measles virus infected in African green monkey Vero cells assessed as reduction in viral cytopathic effect; format: functional, organism-based
# [30] = tested on: Middle East respiratory syndrome-related coronavirus; assay: Antiviral activity against MERS-CoV infected in vervet monkey MA-104 cells assessed as reduction in virus-induced cytopathic effect measured after 15 to 30 mins by neutral red dye based assay; format: functional, organism-based; conditions: MA104
# [31] = Cytotoxicity against African green monkey Vero cells infected with DENV-2 assessed as reduction in cell viability by neutral red dye based assay; format: toxicity; conditions: chlorocebus sabaeus
# [32] = (§3) Selectivity index, ratio of CC50 for cytotoxicity against African green monkey Vero cells infected with DENV-2 assessed as reduction in cell viability by neutral red analysis to EC50 for antiviral activity against DENV-2 infected in human Huh-7 cells assessed as reduction in virus-induced cytopathic effect by neutral red analysis; format: toxicity, cell-based; conditions: read-out: Ratio CC50/EC50
# Influenza A virus [33] = assay: Antiviral activity against Influenza A virus infected in dog MDCK cells assessed as reduction in viral cytopathic effect; format: functional, organism-based
# [34] = as §3, with “vervet” for “African green”, “MA-104” for “Vero”, “MERS-CoV” for “DENV-2”, “visual” for “neutral red”, “vervet monkey MA-104” for “human Huh-7”; format: toxicity, cell-based; conditions: read-out: Ratio CC50/EC50
# [35] = as §3, with “visual” for “neutral red”; format: toxicity, cell-based; conditions: read-out: Ratio CC50/EC50
# dengue virus type 2 = assay: Antiviral activity against DENV-2 infected in African green monkey Vero cells assessed as reduction in virus-induced cytopathic effect measured after 15 to 30 mins by visual analysis; format: functional, organism-based
# [36] = Cytotoxicity against vervet monkey MA-104 cells infected with MERS-CoV assessed as reduction in cell viability by visual assay; format: toxicity, cell-based; conditions: cercopithecus pygerythrus
# Marburgvirus = assay: Antiviral activity against Marburg virus infected in human HeLa cells assessed as reduction in viral cytopathic effect; format: functional, organism-based; conditions: Orthomarburgvirus
smiles,measurement,setting,value
Nc1ncnn2c([C@@H]3N[C@H](CO)[C@@H](O)[C@H]3O)ccc12,CC50,[1],24 µM
same,CC50,[2],32 µM
same,selectivity ratio,[3],44
same,CC50,[4],24 µM
same,CC50,[5],30 µM
same,EC50,Punta Toro virus [6],0.27 µM
same,CC50,[7],12 µM
same,EC90,[8],0.15 µM
same,EC50,Punta Toro virus [9],0.32 µM
same,EC90,Influenza A virus [10],0.25 µM
same,CC50,[11],11 µM
same,CC50,[12],10 µM
same,Activity,[13],Non-Toxic
same,CC50,[14],9.6 µM
same,CC50,[15],16 µM
same,selectivity ratio,[16],38
same,EC50,Tacaribe virus,0.33 µM
same,EC50,Oropouche virus [17],0.2 µM
same,CC50,[18],15 µM
same,mortality at 144 h,[19],72%
same,EC50,La Crosse virus,< 0.1 µM
same,selectivity ratio,[20],32
same,selectivity ratio,[21],97
same,CC50,[22],14 µM
same,CC50,[23],12 µM
same,selectivity ratio,[24],42
same,EC90,Heartland virus,0.13 µM
same,selectivity ratio,[25],> 240
same,CC50,[26],13 µM
same,EC50,Oropouche virus [27],0.39 µM
same,CC50,[28],24 µM
same,selectivity ratio,[29],> 240
Nc1ncnc2c([C@@H]3N[C@H](CO)[C@@H](O)[C@H]3O)c[nH]c12 [GALIDESIVIR],EC50,Measles morbillivirus,1.8 µM
same,EC50,[30],36 µM
same,CC50,[31],> 100 µM
same,selectivity ratio,[32],> 6.7
same,EC50,Influenza A virus [33],1 µM
same,selectivity ratio,[34],> 2.8
same,selectivity ratio,[35],> 24
same,EC50,dengue virus type 2,4.2 µM
same,CC50,[36],> 100 µM
same,EC50,Marburgvirus,3 µM
